Test results published in ChEMBL document CHEMBL1131974, “Asymmetric synthesis and antitumor activity of cycloalkanin” (1999).

How the values were obtained:
A549 [1] = test: In vitro cytotoxic activity against A549 tumor cell line by SRB assay at 72 hour at a concentration 10E-5 (M/L); type: functional, Homo sapiens
A549 [2] = test: In vitro cytotoxic activity against A549 tumor cell line by SRB assay at 72 hour at a concentration 10E-7 (M/L); type: functional, Homo sapiens
P388 [3] = test: In vitro cytotoxic activity against P388 tumor cell line by MTT assay at 48 hour at a concentration 10E-7 (M/L); type: functional, Mus musculus
P388 [4] = test: In vitro cytotoxic activity against P388 tumor cell line by MTT assay at 48 hour at a concentration 10E-8 (M/L); type: functional, Mus musculus
A549 [5] = test: In vitro cytotoxic activity against A549 tumor cell line by SRB assay at 72 hour at a concentration 10E-6 (M/L); type: functional, Homo sapiens
P388 [6] = test: In vitro cytotoxic activity against P388 tumor cell line by MTT assay at 48 hour at a concentration 10E-5 (M/L); type: functional, Mus musculus
P388 [7] = test: In vitro cytotoxic activity against P388 tumor cell line by MTT assay at 48 hour at a concentration 10E-4 (M/L); type: functional, Mus musculus
P388 [8] = test: In vitro cytotoxic activity against P388 tumor cell line by MTT assay at 48 hour at a concentration 10E-6 (M/L); type: functional, Mus musculus
A549 [9] = test: In vitro cytotoxic activity against A549 tumor cell line by SRB assay at 72 hour at a concentration 10E-8 (M/L); type: functional, Homo sapiens
A549 [10] = test: In vitro cytotoxic activity against A549 tumor cell line by SRB assay at 72 hour at a concentration 10E-4 (M/L); type: functional, Homo sapiens

Q: With `CC1(C)CC[C@H](C2=CC(=O)c3c(O)ccc(O)c3C2=O)O1` as the compound, how does the Inhibition (A549 [1]) read?
A: Its Inhibition is 93.5%.

Q: What about the Inhibition (A549 [2]) of the same compound?
A: The Inhibition was 14%.

Q: And the Inhibition (P388 [3])?
A: The Inhibition was 98.9%.

Q: What about the Inhibition (P388 [4]) of the same compound?
A: The Inhibition was 98.9%.

Q: What about the Inhibition (A549 [5]) of the same compound?
A: Its Inhibition is 24.7%.

Q: What about the Inhibition (P388 [6]) of the same compound?
A: The Inhibition was 98.9%.

Q: What about the Inhibition (P388 [7]) of the same compound?
A: The Inhibition was 98.9%.

Q: What about the Inhibition (P388 [8]) of the same compound?
A: Its Inhibition is 98.9%.

Q: What about the Inhibition (A549 [9]) of the same compound?
A: The Inhibition was 0%.

Q: And the Inhibition (A549 [10])?
A: Its Inhibition is 92.5%.
